# Experimental data reported in US20130184302A1, “METHODS FOR TREATING IRRITABLE BOWEL SYNDROME (IBS) AND INFECTIONS” (priority 2011, published 2013).
# Tests used:
# Assay type in all cases: in vivo, human
# [1] = test system: C. difficile infection (CDI); test: CDI trial: recurrence of CDI, recurrence rate per person-year
# Source text: Recurrence was defined to be a diarrhea and a positive C. diff stool toxin assay that occurred after initial clinical success.
# [2] = test system: C. difficile infection (CDI); test: CDI trial: global cure of diarrhea; conditions: Rifaximin N = 117, Vancomycin N = 115
# Source text: Subjects having a global cure of diarrhea are set for the in Table 45. Global cure of diarrhea was defined as subjects who were cured of diarrhea at TOC without recurrence at follow up.
# [3] = test system: C. difficile infection (CDI); test: CDI trial rifaximin 400 mg TID vs vancomycin 125 mg QID: clinical success at Test of Cure; conditions: at TOC (Day 14+/−1)
# Experimental: Criteria for entry into the trial were: • Age>=18 years old; • Had acute diarrhea at screening defined as >=3 unformed stools in the last 24 hours and at least one sign of enteric infection (fever, nausea, lose of appetite, vomiting, severe abdominal pain/discomfort); and • a positive C. diff stool toxin assay
# The primary efficacy endpoint of the study was defined as the proportion of subjects achieving clinical success. Specifically, clinical success was defined as the absence of severe abdominal pain at Test of Cure (TOC), absence of fever (<38° C.) at TOC, and <3 unformed stools for two consecutive days at TOC.
# The non-inferiority margin for the primary endpoint was defined as lower bound of 95% CI of delta above −15%.
# Clinical success was defined as the: Absence of severe abdominal pain at TOC, absence of fever (<38° C.) at TOC, and <3 unformed stools for two consecutive days at TOC. Test of cure defined as Day 14+/−1 day.
# [4] = test system: C. difficile infection (CDI); test: CDI trial: number of unformed stools during the treatment period; conditions: during the treatment period; ANOVA model with treatment and center as main effects; Rifaximin N = 117, Vancomycin N = 115
# Source text: FIG. 18 sets for the average number of unformed stools per day of the study.
# [5] = test system: C. difficile infection (CDI); test: CDI trial: efficacy adjusting for concomitant medication usage
# Source text: Table 48 sets forth the efficacy adjusting for concomitant medication usage.
# [6] = test system: C. difficile infection (CDI); test: CDI trial: enteric symptoms at TOC; conditions: Rifaximin N = 108, Vancomycin N = 111
# Source text: Table 41 sets forth a summary of the enteric symptoms at TOC.
# [7] = test system: C. difficile infection (CDI); test: CDI trial: subgroup analysis of diarrhea at TOC; conditions: at TOC
# Source text: Tables 42 and 43 set forth a subgroup analysis of diarrhea at TOC.
# [8] = test system: C. difficile infection (CDI); test: CDI trial: continuing illnesses; conditions: Rifaximin N = 117, Vancomycin N = 115
# [9] = after initial clinical success, Rifaximin N = 67, Vancomycin N = 73
# [10] = all subjects, Rifaximin N = 117, Vancomycin N = 115
# [11] = cured of diarrhea at TOC without recurrence at follow up
# [12] = Rifaximin N = 117, Vancomycin N = 115
# [13] = Rifaximin N = 109, Vancomycin N = 112
# [14] = subgroup Age <65, Rifaximin N = 69, Vancomycin N = 62
# [15] = subgroup Age >=65, Rifaximin N = 39, Vancomycin N = 49
# [16] = subgroup Female, Rifaximin N = 68, Vancomycin N = 64
# [17] = subgroup Male, Rifaximin N = 40, Vancomycin N = 47
structure (smiles),measurement,setting,value
"CN[C@H](CC(C)C)C(=O)N[C@H]1C(=O)N[C@@H](CC(N)=O)C(=O)N[C@H]2C(=O)N[C@H]3C(=O)N[C@H](C(=O)N[C@H](C(=O)O)c4cc(O)cc(O)c4-c4cc3ccc4O)[C@H](O)c3ccc(c(Cl)c3)Oc3cc2cc(c3O[C@@H]2O[C@H](CO)[C@@H](O)[C@H](O)[C@H]2O[C@H]2C[C@](C)(N)[C@H](O)[C@H](C)O2)Oc2ccc(cc2Cl)[C@H]1O [Vancomycin, vancomycin]","No Recurrence of CDI, number of subjects",[1]; [9],63
same,"No Recurrence of CDI, percent of subjects",[1]; [9],(86%)
same,"Recurrence of CDI, number of subjects",[1]; [9],10
same,"Recurrence of CDI, percent of subjects",[1]; [9],(14%)
same,"Recurrence: No, number of subjects",[1]; [10],105
same,"Recurrence: No, percent of subjects",[1]; [10],(93%)
same,"Recurrence: Yes, number of subjects",[1]; [10],10
same,"Recurrence: Yes, percent of subjects",[1]; [10],(7%)
same,"Global Cure of Diarrhea: No, number of subjects",[2],30
same,"Global Cure of Diarrhea: No, percent of subjects",[2],(26%)
same,"Global Cure of Diarrhea: Yes, number of subjects",[2]; [11],85
same,"Global Cure of Diarrhea: Yes, percent of subjects",[2]; [11],(74%)
same,"Clinical Success: Yes, number of subjects","[3]; Rifaximin 400 mg TID N = 117, Vancomycin 125 mg QID N = 115",73
same,"Clinical Success: No, number of subjects",[3]; [12],42
same,"Clinical Success: No, percent of subjects",[3]; [12],(37%)
same,"Clinical Success: Yes, percent of subjects",[3]; [12],(64%)
same,Adjusted mean number of unformed stools-ANOVA,[4],1.90
same,"Diarrhea: No, number of subjects",[5]; [13],82
same,"Diarrhea: No, percent of subjects",[5]; [13],(73%)
same,"Diarrhea: Yes, number of subjects",[5]; [13],30
same,"Diarrhea: Yes, percent of subjects",[5]; [13],(27%)
same,"Clinical Success: No, number of subjects",[5]; [12],46
same,"Clinical Success: No, percent of subjects",[5]; [12],(40%)
same,"Clinical Success: Yes, number of subjects",[5]; [12],69
same,"Clinical Success: Yes, percent of subjects",[5]; [12],(60%)
same,"Diarrhea: No, number of subjects",[6],90
same,"Diarrhea: No, percent of subjects",[6],(81%)
same,"Diarrhea: Yes, number of subjects",[6],21
same,"Diarrhea: Yes, percent of subjects",[6],(19%)
same,"Fever: No, number of subjects",[6],109
same,"Fever: No, percent of subjects",[6],(98%)
same,"Fever: Yes, number of subjects",[6],2
same,"Fever: Yes, percent of subjects",[6],(2%)
same,"Severe Abdominal Pain/Discomfort: No, number of subjects",[6],95
same,"Severe Abdominal Pain/Discomfort: No, percent of subjects",[6],(86%)
same,"Severe Abdominal Pain/Discomfort: Yes, number of subjects",[6],16
same,"Severe Abdominal Pain/Discomfort: Yes, percent of subjects",[6],(14%)
same,"Diarrhea, number of subjects",[7]; [14],12
same,"Diarrhea, percent of subjects",[7]; [14],(19%)
same,"No Diarrhea, number of subjects",[7]; [14],50
same,"No Diarrhea, percent of subjects",[7]; [14],(81%)
same,"Diarrhea, number of subjects",[7]; [15],9
same,"Diarrhea, percent of subjects",[7]; [15],(18%)
same,"No Diarrhea, number of subjects",[7]; [15],40
same,"No Diarrhea, percent of subjects",[7]; [15],(82%)
same,"Diarrhea, number of subjects",[7]; [16],11
same,"Diarrhea, percent of subjects",[7]; [16],(17%)
same,"No Diarrhea, number of subjects",[7]; [16],53
same,"No Diarrhea, percent of subjects",[7]; [16],(83%)
same,"Diarrhea, number of subjects",[7]; [17],10
same,"Diarrhea, percent of subjects",[7]; [17],(21%)
same,"No Diarrhea, number of subjects",[7]; [17],37
same,"No Diarrhea, percent of subjects",[7]; [17],(79%)
same,"Continuing Illness: No, number of subjects",[8],99
same,"Continuing Illness: No, percent of subjects",[8],(86%)
same,"Continuing Illness: Yes, number of subjects",[8],16
same,"Continuing Illness: Yes, percent of subjects",[8],(14%)
